Structures can show the parent of a compound that is named as a salt.
target: T1, human recombinant HPK1 (Homo sapiens, UniProt Q92918); test: Inhibitory activity against human recombinant HPK1 (TR-FRET); assay type: biochemical; settings: ULight-p70S6K peptide, ATP at Km, room temperature, 1 hour, 0.32 to 1000 nM compound
T1 construct: purchased BPS Bioscience
How it was run: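 IC50 classes A–D use 10, 50 and 100 nM cut-offs, derived from TR-FRET signal inhibition relative to DMSO controls. Human recombinant HPK1 phosphorylated ULight-p70S6K peptide at Km ATP for 1 h, room temperature, pH 7.4; test range 0.32–1000 nM final, detection with Eu-labelled antibody after EDTA quench.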

T1 sequence (Q92918 whole entry): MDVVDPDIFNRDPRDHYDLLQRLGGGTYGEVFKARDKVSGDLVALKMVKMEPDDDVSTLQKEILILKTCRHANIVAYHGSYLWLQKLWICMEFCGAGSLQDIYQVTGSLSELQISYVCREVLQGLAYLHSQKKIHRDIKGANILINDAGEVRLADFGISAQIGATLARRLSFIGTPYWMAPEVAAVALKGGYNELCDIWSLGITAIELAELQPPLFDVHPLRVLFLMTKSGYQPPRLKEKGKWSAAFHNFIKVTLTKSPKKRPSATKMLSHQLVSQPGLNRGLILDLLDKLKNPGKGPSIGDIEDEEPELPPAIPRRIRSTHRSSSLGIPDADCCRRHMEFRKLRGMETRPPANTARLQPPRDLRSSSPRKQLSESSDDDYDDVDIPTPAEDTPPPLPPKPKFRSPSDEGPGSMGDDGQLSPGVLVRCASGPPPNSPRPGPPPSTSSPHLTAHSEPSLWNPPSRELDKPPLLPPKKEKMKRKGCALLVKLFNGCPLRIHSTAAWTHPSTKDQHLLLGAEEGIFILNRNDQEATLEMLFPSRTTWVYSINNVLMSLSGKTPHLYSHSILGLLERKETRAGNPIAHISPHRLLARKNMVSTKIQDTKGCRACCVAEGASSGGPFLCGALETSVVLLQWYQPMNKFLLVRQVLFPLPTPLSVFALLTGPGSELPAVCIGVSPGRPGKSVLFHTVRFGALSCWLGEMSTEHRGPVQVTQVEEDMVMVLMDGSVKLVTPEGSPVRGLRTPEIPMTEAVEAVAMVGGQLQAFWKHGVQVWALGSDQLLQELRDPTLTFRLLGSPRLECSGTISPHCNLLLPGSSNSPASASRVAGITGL

Compound | IC50 [µM]
COc1cc(F)cc(F)c1-c1nc(Nc2cc(N3CCC[C@H](O)C3)c(CCC3CCOCC3)cn2)ccc1N [Example 228, (3S)-1-(2-((5-amino-6-(2,4-difluoro-6-methoxyphenyl)pyridin-2-yl)amino)-5-(2-(tetrahydro-2H-pyran-4-yl)ethyl)pyridin-4-yl)piperidin-3-ol] | 0.01 to 0.05
COc1cc(C(=O)N2CC[C@@H](F)C2)cc(F)c1-c1nccc(Nc2cc(N3CCC[C@H](O)C3)c(-c3cnn(C(F)F)c3)cn2)n1 [Example 233, (4-(4-((5-(1-(difluoromethyl)-1H-pyrazol-4-yl)-4-((S)-3-hydroxypiperidin-1-yl)pyridin-2-yl)amino)pyrimidin-2-yl)-3-fluoro-5-methoxyphenyl)((R)-3-fluoropyrrolidin-1-yl)methanone] | ≤ 0.01
COc1cc(C(=O)N2CCC(F)(F)C2)cc(F)c1-c1nccc(Nc2cc(N3CCC[C@H](O)C3)c(-c3cnn(C(F)F)c3)cn2)n1 [Example 234, (S)-(4-(4-((5-(1-(difluoromethyl)-1H-pyrazol-4-yl)-4-(3-hydroxypiperidin-1-yl)pyridin-2-yl)amino)pyrimidin-2-yl)-3-fluoro-5-methoxyphenyl)(3,3-difluoropyrrolidin-1-yl)methanone] | ≤ 0.01
COc1cccc(F)c1-c1nccc(Nc2cc(N3CCC[C@H](N)C3)c(-c3cnn(CC(C)(C)O)c3)cn2)n1 [Example 235, (S)-1-(4-(4-(3-aminopiperidin-1-yl)-6-((2-(2-fluoro-6-methoxyphenyl)pyrimidin-4-yl)amino)pyridin-3-yl)-1H-pyrazol-1-yl)-2-methylpropan-2-ol hydrochloride] | ≤ 0.01
COc1cccc(F)c1-c1nccc(Nc2cc(N3CCC[C@H](N)C3)c(-c3cnn(CCCN(C)C)c3)cn2)n1 [Example 236, (S)-N-(4-(3-aminopiperidin-1-yl)-5-(1-(3-(dimethylamino)propyl)-1H-pyrazol-4-yl)pyridin-2-yl)-2-(2-fluoro-6-methoxyphenyl)pyrimidin-4-amine hydrochloride] | ≤ 0.01
COc1cccc(F)c1-c1nccc(Nc2cc(N3CCC[C@H](N)C3)c(-c3cnn(CC4CNC4)c3)cn2)n1 [Example 237, (S)-N-(4-(3-aminopiperidin-1-yl)-5-(1-(azetidin-3-ylmethyl)-1H-pyrazol-4-yl)pyridin-2-yl)-2-(2-fluoro-6-methoxyphenyl)pyrimidin-4-amine hydrochloride] | ≤ 0.01
COc1cccc(F)c1-c1nccc(Nc2cc(N3CCC[C@H](N)C3)c(-c3cnn([C@@H]4CCNC4)c3)cn2)n1 [Example 238, N-(4-((S)-3-aminopiperidin-1-yl)-5-(1-((R)-pyrrolidin-3-yl)-1H-pyrazol-4-yl)pyridin-2-yl)-2-(2-fluoro-6-methoxyphenyl)pyrimidin-4-amine hydrochloride] | ≤ 0.01
COc1cccc(F)c1-c1nccc(Nc2cc(N3CCC[C@H](N)C3)c(-c3cnn([C@H]4CCNC4)c3)cn2)n1 [Example 239, N-(4-((S)-3-aminopiperidin-1-yl)-5-(1-((S)-pyrrolidin-3-yl)-1H-pyrazol-4-yl)pyridin-2-yl)-2-(2-fluoro-6-methoxyphenyl)pyrimidin-4-amine hydrochloride] | ≤ 0.01
COc1cccc(F)c1-c1nccc(N(CCN(C)C)c2cc(N3CCC[C@H](N)C3)c(-c3ccc(N)nc3)cn2)n1 [Example 240, (S)-4-(3-aminopiperidin-1-yl)-N^6-(2-(dimethylamino)ethyl)-N^6-(2-(2-fluoro-6-methoxyphenyl)pyrimidin-4-yl)-[3,3′-bipyridin]-6,6′-diamine hydrochloride] | ≤ 0.01
COc1cccc(F)c1-c1nccc(Nc2cc(N3CCC[C@H](N)C3)c(-c3ccc(N4CCNCC4)nc3)cn2)n1 [Example 241, (S)-4-(3-aminopiperidin-1-yl)-N-(2-(2-fluoro-6-methoxyphenyl)pyrimidin-4-yl)-6′-(piperazin-1-yl)-[3,3′-bipyridin]-6-amine hydrochloride] | ≤ 0.01
N[C@H]1CCCN(c2cc(Nc3ccnc(-c4c(F)cccc4CO)n3)ncc2-c2cnn(C(F)F)c2)C1 [Example 242, (S)-(2-(4-((4-(3-aminopiperidin-1-yl)-5-(1-(difluoromethyl)-1H-pyrazol-4-yl)pyridin-2-yl)amino)pyrimidin-2-yl)-3-fluorophenyl)methanol hydrochloride] | ≤ 0.01

Continued, values first:

IC50 [µM] | Compound
≤ 0.01 | COc1cc(F)cc(F)c1-c1nc(Nc2cc(N3CCC[C@H](O)C3)c(-c3cnn(C4CCOCC4)c3)cn2)ccc1[N+](=O)[O-] [Example 224, (3S)-1-(2-((6-(2,4-difluoro-6-methoxyphenyl)-5-nitropyridin-2-yl)amino)-5-(1-(tetrahydro-2H-pyran-4-yl)-1H-pyrazol-4-yl)pyridin-4-yl)piperidin-3-ol]
≤ 0.01 | COc1cc(F)cc(F)c1-c1nc(Nc2cc(N3CCC[C@H](O)C3)c(C#CC3CCOCC3)cn2)ccc1[N+](=O)[O-] [Example 225, (3S)-1-(2-((6-(2,4-difluoro-6-methoxyphenyl)-5-nitropyridin-2-yl)amino)-5-((tetrahydro-2H-pyran-4-yl)ethynyl)pyridin-4-yl)piperidin-3-ol]
≤ 0.01 | COc1cc(F)cc(F)c1-c1nc(Nc2cc(N3CCC[C@H](O)C3)c(-c3cnn(CC(F)F)c3)cn2)ccc1N [Example 226, (3S)-1-(2-((5-amino-6-(2,4-difluoro-6-methoxyphenyl)pyridin-2-yl)amino)-5-(1-(2,2-difluoroethyl)-1H-pyrazol-4-yl)pyridin-4-yl)piperidin-3-ol]
≤ 0.01 | COc1cc(F)cc(F)c1-c1nc(Nc2cc(N3CCC[C@H](O)C3)c(-c3cnn(C4CCOCC4)c3)cn2)ccc1N [Example 227, (3S)-1-(2-((5-amino-6-(2,4-difluoro-6-methoxyphenyl)pyridin-2-yl)amino)-5-(1-(tetrahydro-2H-pyran-4-yl)-1H-pyrazol-4-yl)pyridin-4-yl)piperidin-3-ol]
≤ 0.01 | COc1cccc(F)c1-c1nccc(Nc2cc(N3CCC[C@H](N)C3)c(-c3cnn(CC(C)(C)OC)c3)cn2)n1 [Example 229, (S)-N-(4-(3-aminopiperidin-1-yl)-5-(1-(2-methoxy-2-methylpropyl)-1H-pyrazol-4-yl)pyridin-2-yl)-2-(2-fluoro-6-methoxyphenyl)pyrimidin-4-amine]
≤ 0.01 | COCCOc1ccc(-c2cnc(Nc3ccnc(-c4c(F)cccc4OC)n3)cc2N2CCC[C@H](N)C2)cn1 [Example 230, (S)-4-(3-aminopiperidin-1-yl)-N-(2-(2-fluoro-6-methoxyphenyl)pyrimidin-4-yl)-6′-(2-methoxyethoxy)-[3,3′-bipyridin]-6-amine]
≤ 0.01 | COc1cc(C(=O)N2CC(F)(F)C2)cc(F)c1-c1nccc(Nc2cc(N3CCC[C@H](O)C3)c(-c3cnn(C(F)F)c3)cn2)n1 [Example 231, (S)-(3,3-difluoroazetidin-1-yl)(4-(4-((5-(1-(difluoromethyl)-1H-pyrazol-4-yl)-4-(3-hydroxypiperidin-1-yl)pyridin-2-yl)amino)pyrimidin-2-yl)-3-fluoro-5-methoxyphenyl)methanone]
≤ 0.01 | COc1cc(C(=O)N2CC[C@H](F)C2)cc(F)c1-c1nccc(Nc2cc(N3CCC[C@H](O)C3)c(-c3cnn(C(F)F)c3)cn2)n1 [Example 232, (4-(4-((5-(1-(difluoromethyl)-1H-pyrazol-4-yl)-4-((S)-3-hydroxypiperidin-1-yl)pyridin-2-yl)amino)pyrimidin-2-yl)-3-fluoro-5-methoxyphenyl)((S)-3-fluoropyrrolidin-1-yl)methanone]
